{
  "source": "patent US20210186962A1",
  "about": "“METHODS OF SCHIZOPHRENIA TREATMENT” (INTRA-CELLULAR THERAPIES, INC., priority 2019, published 2021)",
  "key": {"[1]": {"test": "Pharmacokinetic studies (oral, intravenous, food effect)"}, "[2]": {"test": "Drug interaction: CYP3A4 substrate midazolam", "format": "in vivo, human", "details": "single or multiple doses of lumateperone in patients with schizophrenia"}, "CYP2D6": {"molecular_target": "CYP2D6 (Homo sapiens, UniProt P10635)", "sequence (P10635 whole entry)": "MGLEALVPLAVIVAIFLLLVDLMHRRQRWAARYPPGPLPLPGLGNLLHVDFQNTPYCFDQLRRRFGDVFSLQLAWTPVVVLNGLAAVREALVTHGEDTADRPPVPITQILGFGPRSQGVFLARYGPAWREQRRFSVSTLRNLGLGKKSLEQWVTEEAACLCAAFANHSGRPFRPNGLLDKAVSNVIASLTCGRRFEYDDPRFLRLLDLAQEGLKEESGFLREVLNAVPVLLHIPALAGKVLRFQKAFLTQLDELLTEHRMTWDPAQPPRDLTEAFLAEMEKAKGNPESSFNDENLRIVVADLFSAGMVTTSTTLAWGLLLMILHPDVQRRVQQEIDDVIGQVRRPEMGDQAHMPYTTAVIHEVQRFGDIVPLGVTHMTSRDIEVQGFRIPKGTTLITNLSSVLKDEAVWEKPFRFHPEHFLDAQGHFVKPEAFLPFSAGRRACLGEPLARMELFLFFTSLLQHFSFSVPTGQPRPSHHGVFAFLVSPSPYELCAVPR", "test": "In vitro CYP inhibition", "format": "in vitro ADME"}, "CYP2C9": {"molecular_target": "CYP2C9 (Homo sapiens, UniProt P11712)", "test": "In vitro CYP inhibition", "format": "in vitro ADME"}, "OATP1B3": {"molecular_target": "OATP1B3 (Homo sapiens, UniProt Q9NPD5)", "sequence (Q9NPD5 whole entry)": "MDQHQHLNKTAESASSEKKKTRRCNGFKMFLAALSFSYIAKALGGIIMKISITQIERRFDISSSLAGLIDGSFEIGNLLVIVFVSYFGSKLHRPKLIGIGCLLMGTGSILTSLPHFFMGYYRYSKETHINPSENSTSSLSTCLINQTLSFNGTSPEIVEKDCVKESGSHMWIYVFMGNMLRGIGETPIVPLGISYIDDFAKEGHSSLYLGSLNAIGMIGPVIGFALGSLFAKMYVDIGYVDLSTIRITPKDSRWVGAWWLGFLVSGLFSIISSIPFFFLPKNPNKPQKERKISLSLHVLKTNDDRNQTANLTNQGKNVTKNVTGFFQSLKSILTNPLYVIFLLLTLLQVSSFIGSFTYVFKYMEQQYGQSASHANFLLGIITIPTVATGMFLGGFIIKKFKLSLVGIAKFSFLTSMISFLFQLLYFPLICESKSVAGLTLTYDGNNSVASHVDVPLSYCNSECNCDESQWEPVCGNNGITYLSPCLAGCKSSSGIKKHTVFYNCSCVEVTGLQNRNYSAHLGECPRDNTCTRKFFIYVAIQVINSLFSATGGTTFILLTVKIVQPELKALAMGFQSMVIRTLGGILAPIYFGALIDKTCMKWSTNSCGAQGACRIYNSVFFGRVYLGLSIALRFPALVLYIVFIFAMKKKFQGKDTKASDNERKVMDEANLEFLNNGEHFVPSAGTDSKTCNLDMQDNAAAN", "test": "In vitro transporter inhibition", "format": "in vitro ADME"}, "[3]": {"molecular_target": "(Homo sapiens, UniProt Q8TCC7)", "sequence (Q8TCC7 whole entry)": "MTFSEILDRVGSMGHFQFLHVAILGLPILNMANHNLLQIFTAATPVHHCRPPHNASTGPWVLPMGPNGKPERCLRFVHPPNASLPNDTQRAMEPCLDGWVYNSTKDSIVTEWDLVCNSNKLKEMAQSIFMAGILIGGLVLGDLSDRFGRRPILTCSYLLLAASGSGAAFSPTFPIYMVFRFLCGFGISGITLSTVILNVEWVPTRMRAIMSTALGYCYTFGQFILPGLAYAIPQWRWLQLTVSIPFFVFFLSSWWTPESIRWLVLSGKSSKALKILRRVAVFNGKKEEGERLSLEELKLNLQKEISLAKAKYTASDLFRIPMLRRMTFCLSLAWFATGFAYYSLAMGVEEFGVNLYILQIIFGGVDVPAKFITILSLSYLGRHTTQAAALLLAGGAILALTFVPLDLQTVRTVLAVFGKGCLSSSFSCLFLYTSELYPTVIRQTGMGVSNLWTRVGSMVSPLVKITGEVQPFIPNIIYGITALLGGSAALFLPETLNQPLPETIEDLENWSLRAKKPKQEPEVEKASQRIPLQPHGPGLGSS", "test": "In vitro transporter inhibition", "format": "in vitro ADME"}, "muscarinic receptors": {"test_system": "muscarinic receptors", "test": "Receptor binding, muscarinic", "details": "at 100 nM"}, "OCT2": {"molecular_target": "OCT2 (Homo sapiens, UniProt O15244)", "sequence (O15244 whole entry)": "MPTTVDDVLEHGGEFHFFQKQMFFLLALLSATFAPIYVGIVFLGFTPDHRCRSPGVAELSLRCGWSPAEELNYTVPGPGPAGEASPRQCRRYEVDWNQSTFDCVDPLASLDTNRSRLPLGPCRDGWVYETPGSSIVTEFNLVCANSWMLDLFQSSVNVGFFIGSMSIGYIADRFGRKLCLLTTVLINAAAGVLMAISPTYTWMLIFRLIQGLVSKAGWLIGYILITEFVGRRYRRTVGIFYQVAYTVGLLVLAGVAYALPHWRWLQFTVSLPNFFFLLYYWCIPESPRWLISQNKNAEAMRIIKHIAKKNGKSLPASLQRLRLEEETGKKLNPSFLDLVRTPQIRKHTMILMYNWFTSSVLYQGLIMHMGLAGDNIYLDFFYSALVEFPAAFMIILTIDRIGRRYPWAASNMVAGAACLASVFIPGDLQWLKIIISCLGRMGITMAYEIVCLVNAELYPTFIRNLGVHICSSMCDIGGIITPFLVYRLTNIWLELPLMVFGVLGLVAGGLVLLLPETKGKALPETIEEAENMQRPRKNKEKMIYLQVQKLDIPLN", "test": "In vitro transporter inhibition", "format": "in vitro ADME"}, "[4]": {"test_system": "UGT 1A1, 1A4, 2B15; AKR 1C1, 1B10, 1C4; CYP 3A4, 2C8, 1A2", "test": "In vitro studies of enzymes involved in metabolism", "format": "in vitro ADME"}, "CYP2B6": {"test_system": "CYP2B6", "test": "In vitro CYP induction", "format": "in vitro ADME"}, "OAT1": {"molecular_target": "OAT1 (Homo sapiens, UniProt Q4U2R8)", "test": "In vitro transporter inhibition", "format": "in vitro ADME"}, "BCRP": {"molecular_target": "BCRP (Homo sapiens, UniProt Q9UNQ0)", "test": "In vitro transporter substrate", "format": "in vitro ADME"}, "histaminergic receptors": {"test_system": "histaminergic receptors", "test": "Receptor binding, histaminergic", "details": "at 100 nM"}, "CYP2C19": {"molecular_target": "CYP2C19 (Homo sapiens, UniProt P33261)", "sequence (P33261 whole entry)": "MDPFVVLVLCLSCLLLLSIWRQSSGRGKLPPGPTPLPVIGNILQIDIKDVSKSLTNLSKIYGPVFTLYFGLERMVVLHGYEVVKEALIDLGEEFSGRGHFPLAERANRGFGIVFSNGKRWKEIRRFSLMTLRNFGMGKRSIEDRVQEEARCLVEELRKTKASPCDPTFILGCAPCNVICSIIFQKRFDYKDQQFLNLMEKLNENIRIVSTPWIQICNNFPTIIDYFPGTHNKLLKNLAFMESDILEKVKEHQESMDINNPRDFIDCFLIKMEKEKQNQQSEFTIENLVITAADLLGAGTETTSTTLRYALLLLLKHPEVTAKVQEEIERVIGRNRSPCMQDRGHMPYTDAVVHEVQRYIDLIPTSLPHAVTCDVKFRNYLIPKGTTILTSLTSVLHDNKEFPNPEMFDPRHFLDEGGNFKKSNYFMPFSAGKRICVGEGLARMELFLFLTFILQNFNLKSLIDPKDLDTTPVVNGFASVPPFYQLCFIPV", "test": "In vitro CYP inhibition", "format": "in vitro ADME"}, "OATP1B1": {"molecular_target": "OATP1B1 (Homo sapiens, UniProt Q9Y6L6)", "test": "In vitro transporter inhibition", "format": "in vitro ADME"}, "CYP1A2 [5]": {"molecular_target": "CYP1A2 (Homo sapiens, UniProt P05177)", "sequence (P05177 whole entry)": "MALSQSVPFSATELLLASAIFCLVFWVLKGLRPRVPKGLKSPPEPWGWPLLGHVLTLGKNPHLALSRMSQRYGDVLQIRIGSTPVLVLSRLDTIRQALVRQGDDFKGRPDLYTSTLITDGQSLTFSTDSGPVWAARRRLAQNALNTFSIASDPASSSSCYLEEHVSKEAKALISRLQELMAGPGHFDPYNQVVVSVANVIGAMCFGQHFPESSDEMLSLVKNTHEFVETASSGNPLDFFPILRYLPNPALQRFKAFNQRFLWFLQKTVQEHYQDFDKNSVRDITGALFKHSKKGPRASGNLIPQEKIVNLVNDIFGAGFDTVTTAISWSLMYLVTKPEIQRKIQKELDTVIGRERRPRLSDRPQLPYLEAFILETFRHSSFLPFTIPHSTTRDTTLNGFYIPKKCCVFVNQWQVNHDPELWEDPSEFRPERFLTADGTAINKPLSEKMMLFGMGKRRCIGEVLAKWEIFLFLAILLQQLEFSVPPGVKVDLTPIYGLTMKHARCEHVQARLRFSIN", "test": "In vitro CYP inhibition", "format": "in vitro ADME"}, "dopamine D2 receptors": {"molecular_target": "dopamine D2 receptors (Homo sapiens, UniProt P14416)", "sequence (P14416 whole entry)": "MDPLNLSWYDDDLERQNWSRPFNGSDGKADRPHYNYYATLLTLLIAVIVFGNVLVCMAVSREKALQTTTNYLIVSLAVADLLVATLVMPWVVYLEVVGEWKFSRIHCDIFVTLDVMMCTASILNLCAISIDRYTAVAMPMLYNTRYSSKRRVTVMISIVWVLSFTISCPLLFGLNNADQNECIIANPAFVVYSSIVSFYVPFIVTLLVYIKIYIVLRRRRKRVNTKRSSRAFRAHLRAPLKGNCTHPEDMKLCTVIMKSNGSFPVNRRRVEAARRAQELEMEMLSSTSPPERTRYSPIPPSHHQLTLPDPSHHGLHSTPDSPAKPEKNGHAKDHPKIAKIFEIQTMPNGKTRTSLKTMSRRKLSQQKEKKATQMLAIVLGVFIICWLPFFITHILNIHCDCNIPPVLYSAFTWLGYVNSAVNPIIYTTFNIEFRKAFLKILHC", "test": "Receptor binding affinity, dopamine D2"}, "[6]": {"test": "Pharmacokinetics in specific populations", "format": "in vivo, human", "text": "Use of lumateperone (e.g., lumateperone tosylate) is not recommended for patients with moderate (Child-Pugh class B) to severe hepatic impairment (Child-Pugh class C). […] No dosage adjustment is recommended for patients with mild hepatic impairment (Child-Pugh A)."}, "[7]": {"test": "Drug interaction: effects of other drugs on lumateperone exposure", "set-up": "species or system human", "details": "in vivo", "text": "Such concomitant use should therefore be avoided. Moderate CYP 3A4 inhibitors include amprenavir, ciprofloxacin, cyclosporine, diltiazem, erythromycin, fluconazole, fluvoxamine, and verapamil. Strong CYP 3A4 inhibitors include clarithromycin, grapefruit juice, itraconazole, voriconazole, nefazodone, ritonavir, and nelfinavir.\nSuch concomitant use should therefore be avoided. CYP 3A4 inducers include carbamazepine, phenytoin, rifampin, St. John's wort, bosentan, efavirenz, etravirine, modafinil, nafcillin, aprepitant, armodafinil, pioglitazone, and prednisone."}, "P-gp": {"molecular_target": "P-gp (Homo sapiens, UniProt P08183)", "sequence (P08183 whole entry)": "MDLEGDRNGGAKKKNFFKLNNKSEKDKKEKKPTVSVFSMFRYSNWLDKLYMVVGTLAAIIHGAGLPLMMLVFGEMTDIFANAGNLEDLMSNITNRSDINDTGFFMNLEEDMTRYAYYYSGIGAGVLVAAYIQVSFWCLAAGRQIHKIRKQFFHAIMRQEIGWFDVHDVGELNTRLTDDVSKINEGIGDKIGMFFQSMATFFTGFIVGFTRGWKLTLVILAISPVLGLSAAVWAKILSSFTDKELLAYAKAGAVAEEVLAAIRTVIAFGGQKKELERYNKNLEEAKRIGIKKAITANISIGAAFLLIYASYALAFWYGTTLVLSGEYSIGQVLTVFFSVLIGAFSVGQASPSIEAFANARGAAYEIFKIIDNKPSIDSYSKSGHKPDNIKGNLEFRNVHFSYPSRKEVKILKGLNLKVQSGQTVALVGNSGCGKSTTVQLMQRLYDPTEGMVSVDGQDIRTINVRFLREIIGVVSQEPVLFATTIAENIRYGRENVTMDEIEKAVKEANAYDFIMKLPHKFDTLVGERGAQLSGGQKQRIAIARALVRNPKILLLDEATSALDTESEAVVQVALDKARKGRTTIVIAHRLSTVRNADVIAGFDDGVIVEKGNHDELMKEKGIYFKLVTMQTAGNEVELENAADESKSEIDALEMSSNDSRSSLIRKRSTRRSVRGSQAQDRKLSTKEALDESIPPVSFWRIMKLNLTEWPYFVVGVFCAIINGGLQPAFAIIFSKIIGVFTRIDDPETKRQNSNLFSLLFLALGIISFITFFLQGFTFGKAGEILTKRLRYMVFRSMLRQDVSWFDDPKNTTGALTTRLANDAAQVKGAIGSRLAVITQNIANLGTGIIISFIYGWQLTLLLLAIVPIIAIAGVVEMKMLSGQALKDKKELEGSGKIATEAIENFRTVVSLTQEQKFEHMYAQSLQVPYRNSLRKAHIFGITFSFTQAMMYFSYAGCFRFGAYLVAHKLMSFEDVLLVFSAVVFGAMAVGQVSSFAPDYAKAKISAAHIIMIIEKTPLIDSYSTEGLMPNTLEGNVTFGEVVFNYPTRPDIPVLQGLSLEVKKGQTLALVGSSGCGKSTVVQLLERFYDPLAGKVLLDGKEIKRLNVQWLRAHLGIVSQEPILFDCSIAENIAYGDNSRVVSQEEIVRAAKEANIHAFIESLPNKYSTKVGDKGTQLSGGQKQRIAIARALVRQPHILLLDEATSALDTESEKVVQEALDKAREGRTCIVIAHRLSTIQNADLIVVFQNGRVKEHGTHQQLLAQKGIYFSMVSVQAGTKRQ", "test": "In vitro transporter substrate", "format": "in vitro ADME"}, "CYP1A2 [8]": {"test_system": "CYP1A2", "test": "In vitro CYP induction", "format": "in vitro ADME"}, "[9]": {"test": "Human mass balance study, 14C-labeled oral dose", "format": "in vivo"}, "CYP3A4": {"test_system": "CYP3A4", "test": "In vitro CYP induction", "format": "in vitro ADME"}, "Plasma protein binding": {"test": "Plasma protein binding", "format": "in vitro ADME", "details": "at 5 μM in human plasma (about 70-fold higher than therapeutic concentrations)"}},
  "note": "pKi: −log10 of the molar value.",
  "data": [
    {"smiles": "CN1CCN2c3c(cccc31)[C@@H]1CN(CCCC(=O)c3ccc(F)cc3)CC[C@@H]12", "note": "[Lumateperone, 4-((6bR,10aS)-3-methyl-2,3,6b,9,10,10a-hexahydro-1H,7H-pyrido[3′,4′: 4,5]pyrrolo[1,2,3-de]quinoxalin-8-yl)-1-(4-fluoro-phenyl)-butan-1-one]", "values": [
      {"measurement": "increase of mean AUC by food", "setting": "[1]; high-fat meal", "result": 9, "unit": "%"},
      {"measurement": "lowering of mean Cmax by food", "setting": "[1]; high-fat meal", "result": 33, "unit": "%"},
      {"measurement": "Vd", "setting": "[1]; human, in vivo, iv", "result": "~4.1", "unit": "L/kg"},
      {"measurement": "clearance", "setting": "[1]; human, in vivo, iv", "result": "~465", "unit": "mL/min"},
      {"measurement": "half-life", "setting": "[1]; human, in vivo, iv", "result": "~18", "unit": "h"},
      {"measurement": "bioavailability", "setting": "[1]; human, plasma, oral", "result": "~4.4", "unit": "%"},
      {"measurement": "Tmax", "setting": "[1]; human, plasma, oral, delay of median Tmax by food, high-fat meal", "result": "~1", "unit": "h"},
      {"measurement": "Tmax", "setting": "[1]; human, plasma, oral, median Tmax, fasted state", "result": 1, "unit": "h"},
      {"measurement": "Tmax", "setting": "[1]; human, plasma, oral, median Tmax, in the presence of food", "result": 2, "unit": "h"},
      {"measurement": "increase in steady-state exposure with dose", "setting": "[1]; range of 21 mg to 56 mg", "result": "approximately dose-proportional"},
      {"measurement": "effect on pharmacokinetics of midazolam (CYP3A4 substrate) or its metabolite 1-hydroxymidazolam", "setting": "[2]", "result": "No clinically significant differences"},
      {"measurement": "inhibition of CYP2D6", "setting": "CYP2D6", "result": "little to no inhibition"},
      {"measurement": "inhibition of CYP2C9", "setting": "CYP2C9", "result": "little to no inhibition"},
      {"measurement": "inhibition of OATP1B3", "setting": "OATP1B3", "result": "little to no inhibition"},
      {"measurement": "inhibition of OATS", "setting": "[3]", "result": "little to no inhibition"},
      {"measurement": "inhibition, muscarinic receptors", "setting": "muscarinic receptors", "result": "less than 50%"},
      {"measurement": "inhibition of OCT2", "setting": "OCT2", "result": "little to no inhibition"},
      {"measurement": "enzymes involved in metabolism", "setting": "[4]", "result": "involved in the metabolism"},
      {"measurement": "induction of CYP2B6", "setting": "CYP2B6", "result": "no induction"},
      {"measurement": "inhibition of OAT1", "setting": "OAT1", "result": "little to no inhibition"},
      {"measurement": "BCRP substrate", "setting": "BCRP", "result": "did not appear to be"},
      {"measurement": "inhibition, histaminergic receptors", "setting": "histaminergic receptors", "result": "less than 50%"},
      {"measurement": "inhibition of CYP2C19", "setting": "CYP2C19", "result": "little to no inhibition"},
      {"measurement": "inhibition of OATP1B1", "setting": "OATP1B1", "result": "little to no inhibition"},
      {"measurement": "inhibition of CYP1A2", "setting": "CYP1A2 [5]", "result": "little to no inhibition"},
      {"measurement": "pKi", "setting": "dopamine D2 receptors", "result": 7.49},
      {"measurement": "exposure in patients with moderate and severe hepatic impairment", "setting": "[6]; Child-Pugh class B and C", "result": "higher exposure"},
      {"measurement": "differences in pharmacokinetics based on age, sex, or race", "setting": "[6]; in vivo", "result": "No clinically significant differences"},
      {"measurement": "effect of concomitant CYP3A4 inducers on lumateperone exposure", "setting": "[7]", "result": "decreases the exposure"},
      {"measurement": "effect of concomitant moderate or strong CYP3A4 inhibitors on lumateperone exposure", "setting": "[7]", "result": "increases lumateperone exposure"},
      {"measurement": "P-gp substrate", "setting": "P-gp", "result": "did not appear to be"},
      {"measurement": "induction of CYP1A2", "setting": "CYP1A2 [8]", "result": "no induction"},
      {"measurement": "lumateperone share of total plasma radioactivity", "setting": "[9]; after a single 14C-labeled oral dose", "result": "about 2.8%"},
      {"measurement": "dose excreted as unchanged lumateperone in the urine", "setting": "[9]; human mass balance study", "result": "Less than 1%"},
      {"measurement": "metabolites identified in vivo", "setting": "[9]; in vivo", "result": "more than twenty"},
      {"measurement": "induction of CYP3A4", "setting": "CYP3A4", "result": "no induction"},
      {"measurement": "fraction unbound at 5 μM", "setting": "Plasma protein binding", "result": 0.026}
    ]}
  ]
}
